Reference: patent publication US10688200B2, “Urea-based prostate specific membrane antigen (PSMA) inhibitors for imaging and therapy” (Five Eleven Pharma Inc., priority 2015, dated 2020)
One block for each compound: values may come before it.

Assay: Biodistribution of radiotracers in normal mice
Assay type: in vivo, mouse
Conditions: normal male mice
Experimental: Normal CD-1 male mice were injected via the tail vein with 35 μCi of [^68Ga] radiotracers (0.2 nmole of ligand). […] All organs were removed and blood was also collected. Each organ was weighed, and the tissue radioactivity was measured with an automated gamma counter (Wizard, Perkin Elmer). The % ID/g was calculated by comparison with samples of a standard dilution of the initial dose. All measurements were corrected for decay.

SMILES: O=C(O)CC[C@H](NC(=O)N[C@@H](CCCCNC(=O)CCCCCNC(=O)CCc1ccc2c(c1)C[N+]13CC[N+]45CC(=O)[O][68Ga-3]14([O]C(=O)C3)([O]2)[O]c1ccc(CCC(=O)N[C@@H](CC(=O)O)C(=O)O)cc1C5)C(=O)O)C(=O)O (stereo partly drawn) [[^68Ga]1e]
Biodistribution: Blood (2 min): 7.47 ± 0.33 % dose/g
Biodistribution: Bone (2 min): 2.33 ± 0.05 % dose/g
Biodistribution: Brain (2 min): 0.25 ± 0.07 % dose/g
Biodistribution: Heart (2 min): 3.12 ± 0.17 % dose/g
Biodistribution: Kidney (2 min): 46.6 ± 3.01 % dose/g
Biodistribution: Liver (2 min): 2.00 ± 0.09 % dose/g
Biodistribution: Lung (2 min): 5.08 ± 0.13 % dose/g
Biodistribution: Muscle (2 min): 2.01 ± 0.09 % dose/g
Biodistribution: Pancreas (2 min): 1.80 ± 0.17 % dose/g
Biodistribution: Skin (2 min): 2.46 ± 0.32 % dose/g
Biodistribution: Spleen (2 min): 3.69 ± 0.45 % dose/g
Biodistribution: Blood (60 min): 0.45 ± 0.14 % dose/g
Biodistribution: Bone (60 min): 0.52 ± 0.06 % dose/g
Biodistribution: Brain (60 min): 0.02 ± 0.00 % dose/g
Biodistribution: Heart (60 min): 0.28 ± 0.05 % dose/g
Biodistribution: Kidney (60 min): 113 ± 28.5 % dose/g
Biodistribution: Liver (60 min): 0.35 ± 0.09 % dose/g
Biodistribution: Lung (60 min): 1.14 ± 0.30 % dose/g
Biodistribution: Muscle (60 min): 0.33 ± 0.07 % dose/g
Biodistribution: Pancreas (60 min): 0.74 ± 0.19 % dose/g
Biodistribution: Skin (60 min): 0.67 ± 0.06 % dose/g
Biodistribution: Spleen (60 min): 3.03 ± 0.90 % dose/g

SMILES: O=C(O)CC[C@H](NC(=O)CCc1ccc2c(c1)C[N+]13CC[N+]45CC(=O)[O][68Ga-3]41([O]C(=O)C3)([O]c1ccc(CCC(=O)NCCCCCC(=O)NCCCC[C@H](NC(=O)N[C@@H](CCC(=O)O)C(=O)O)C(=O)O)cc1C5)[O]2)C(=O)O (stereo partly drawn) [[^68Ga]1f]
Biodistribution: Blood (2 min): 7.77 ± 1.51 % dose/g
Biodistribution: Bone (2 min): 2.33 ± 0.38 % dose/g
Biodistribution: Brain (2 min): 0.25 ± 0.02 % dose/g
Biodistribution: Heart (2 min): 3.23 ± 0.64 % dose/g
Biodistribution: Kidney (2 min): 45.0 ± 12.57 % dose/g
Biodistribution: Liver (2 min): 2.43 ± 0.60 % dose/g
Biodistribution: Lung (2 min): 5.07 ± 1.01 % dose/g
Biodistribution: Muscle (2 min): 1.81 ± 0.07 % dose/g
Biodistribution: Pancreas (2 min): 1.72 ± 0.41 % dose/g
Biodistribution: Skin (2 min): 2.44 ± 0.16 % dose/g
Biodistribution: Spleen (2 min): 3.80 ± 0.97 % dose/g
Biodistribution: Blood (60 min): 0.97 ± 0.24 % dose/g
Biodistribution: Bone (60 min): 1.08 ± 0.05 % dose/g
Biodistribution: Brain (60 min): 0.04 ± 0.01 % dose/g
Biodistribution: Heart (60 min): 0.52 ± 0.07 % dose/g
Biodistribution: Kidney (60 min): 120 ± 5.65 % dose/g
Biodistribution: Liver (60 min): 0.79 ± 0.13 % dose/g
Biodistribution: Lung (60 min): 1.37 ± 0.15 % dose/g
Biodistribution: Muscle (60 min): 0.60 ± 0.04 % dose/g
Biodistribution: Pancreas (60 min): 1.13 ± 0.17 % dose/g
Biodistribution: Skin (60 min): 0.98 ± 0.10 % dose/g
Biodistribution: Spleen (60 min): 2.98 ± 1.86 % dose/g

SMILES: O=C(O)CC[C@H](NC(=O)N[C@@H](CCCCNC(=O)CCCCCNC(=O)CCc1ccc2c(c1)C[N+]13CC[N+]45CC(=O)[O][68Ga-3]14([O]C(=O)C3)([O]2)[O]c1ccc(CCC(=O)NCCNC(=O)CN2CCN(CC(=O)O)CCN(CC(=O)O)CCN(CC(=O)O)CC2)cc1C5)C(=O)O)C(=O)O (stereo partly drawn) [[^68Ga]1g]
Biodistribution: Blood (2 min): 7.62 ± 0.08 % dose/g
Biodistribution: Bone (2 min): 1.51 ± 0.17 % dose/g
Biodistribution: Brain (2 min): 0.29 ± 0.06 % dose/g
Biodistribution: Heart (2 min): 2.82 ± 0.21 % dose/g
Biodistribution: Kidney (2 min): 50.9 ± 5.81 % dose/g
Biodistribution: Liver (2 min): 2.00 ± 0.05 % dose/g
Biodistribution: Lung (2 min): 5.19 ± 0.19 % dose/g
Biodistribution: Muscle (2 min): 1.72 ± 0.18 % dose/g
Biodistribution: Pancreas (2 min): 1.73 ± 0.09 % dose/g
Biodistribution: Skin (2 min): 2.00 ± 0.21 % dose/g
Biodistribution: Spleen (2 min): 5.06 ± 0.78 % dose/g
Biodistribution: Blood (30 min): 0.68 ± 0.09 % dose/g
Biodistribution: Bone (30 min): 0.22 ± 0.11 % dose/g
Biodistribution: Brain (30 min): 0.06 ± 0.03 % dose/g
Biodistribution: Heart (30 min): 0.49 ± 0.15 % dose/g
Biodistribution: Kidney (30 min): 110 ± 13.4 % dose/g
Biodistribution: Liver (30 min): 0.47 ± 0.06 % dose/g
Biodistribution: Lung (30 min): 2.13 ± 0.39 % dose/g
Biodistribution: Muscle (30 min): 0.48 ± 0.04 % dose/g
Biodistribution: Pancreas (30 min): 0.73 ± 0.19 % dose/g
Biodistribution: Skin (30 min): 1.13 ± 0.25 % dose/g
Biodistribution: Spleen (30 min): 5.28 ± 2.18 % dose/g
Biodistribution: Blood (60 min): 0.41 ± 0.02 % dose/g
Biodistribution: Bone (60 min): 0.28 ± 0.03 % dose/g
Biodistribution: Brain (60 min): 0.03 ± 0.01 % dose/g
Biodistribution: Heart (60 min): 0.27 ± 0.03 % dose/g
Biodistribution: Kidney (60 min): 116 ± 23.2 % dose/g
Biodistribution: Liver (60 min): 0.43 ± 0.05 % dose/g
Biodistribution: Lung (60 min): 1.33 ± 0.06 % dose/g
Biodistribution: Muscle (60 min): 0.30 ± 0.08 % dose/g
Biodistribution: Pancreas (60 min): 0.48 ± 0.05 % dose/g
Biodistribution: Skin (60 min): 0.92 ± 0.11 % dose/g
Biodistribution: Spleen (60 min): 4.77 ± 2.37 % dose/g
Biodistribution: Blood (120 min): 0.25 ± 0.04 % dose/g
Biodistribution: Bone (120 min): 0.28 ± 0.03 % dose/g
Biodistribution: Brain (120 min): 0.02 ± 0.00 % dose/g
Biodistribution: Heart (120 min): 0.16 ± 0.01 % dose/g
Biodistribution: Kidney (120 min): 95.0 ± 11.2 % dose/g
Biodistribution: Liver (120 min): 0.30 ± 0.01 % dose/g
Biodistribution: Lung (120 min): 0.85 ± 0.16 % dose/g
Biodistribution: Muscle (120 min): 0.23 ± 0.04 % dose/g
Biodistribution: Pancreas (120 min): 0.39 ± 0.04 % dose/g
Biodistribution: Skin (120 min): 0.66 ± 0.10 % dose/g
Biodistribution: Spleen (120 min): 2.48 ± 0.91 % dose/g

Further lines, results first:

Biodistribution: Blood (2 min): 8.55 ± 0.07 % dose/g
Biodistribution: Bone (2 min): 2.30 ± 0.07 % dose/g
Biodistribution: Brain (2 min): 0.28 ± 0.04 % dose/g
Biodistribution: Heart (2 min): 3.48 ± 0.31 % dose/g
Biodistribution: Kidney (2 min): 47.2 ± 2.68 % dose/g
Biodistribution: Liver (2 min): 2.91 ± 0.15 % dose/g
Biodistribution: Lung (2 min): 5.42 ± 0.23 % dose/g
Biodistribution: Muscle (2 min): 2.16 ± 0.34 % dose/g
Biodistribution: Pancreas (2 min): 2.20 ± 0.04 % dose/g
Biodistribution: Skin (2 min): 3.00 ± 0.40 % dose/g
Biodistribution: Spleen (2 min): 3.58 ± 0.48 % dose/g
Biodistribution: Blood (60 min): 0.58 ± 0.07 % dose/g
Biodistribution: Bone (60 min): 1.24 ± 0.19 % dose/g
Biodistribution: Brain (60 min): 0.03 ± 0.01 % dose/g
Biodistribution: Heart (60 min): 0.43 ± 0.14 % dose/g
Biodistribution: Kidney (60 min): 83.5 ± 14.7 % dose/g
Biodistribution: Liver (60 min): 0.79 ± 0.15 % dose/g
Biodistribution: Lung (60 min): 0.90 ± 0.16 % dose/g
Biodistribution: Muscle (60 min): 0.60 ± 0.13 % dose/g
Biodistribution: Pancreas (60 min): 1.13 ± 0.17 % dose/g
Biodistribution: Skin (60 min): 1.07 ± 0.16 % dose/g
Biodistribution: Spleen (60 min): 1.63 ± 0.20 % dose/g
SMILES: O=C(O)CC[C@H](NC(=O)N[C@@H](CCCCNC(=O)CCCCCNC(=O)CCc1ccc2c(c1)C[N+]13CC[N+]45CC(=O)[O][68Ga-3]14([O]C(=O)C3)([O]2)[O]c1ccc(CCC(=O)NCC(=O)O)cc1C5)C(=O)O)C(=O)O (stereo partly drawn) [[^68Ga]1c]

Biodistribution: Blood (2 min): 7.44 ± 1.40 % dose/g
Biodistribution: Bone (2 min): 2.01 ± 0.24 % dose/g
Biodistribution: Brain (2 min): 0.23 ± 0.04 % dose/g
Biodistribution: Heart (2 min): 3.18 ± 0.48 % dose/g
Biodistribution: Kidney (2 min): 50.3 ± 8.32 % dose/g
Biodistribution: Liver (2 min): 2.36 ± 0.27 % dose/g
Biodistribution: Lung (2 min): 4.96 ± 0.67 % dose/g
Biodistribution: Muscle (2 min): 1.96 ± 0.08 % dose/g
Biodistribution: Pancreas (2 min): 1.83 ± 0.40 % dose/g
Biodistribution: Skin (2 min): 2.30 ± 0.20 % dose/g
Biodistribution: Spleen (2 min): 3.40 ± 0.91 % dose/g
Biodistribution: Blood (60 min): 0.44 ± 0.06 % dose/g
Biodistribution: Bone (60 min): 0.70 ± 0.09 % dose/g
Biodistribution: Brain (60 min): 0.03 ± 0.00 % dose/g
Biodistribution: Heart (60 min): 0.42 ± 0.01 % dose/g
Biodistribution: Kidney (60 min): 141.7 ± 0.82 % dose/g
Biodistribution: Liver (60 min): 0.68 ± 0.11 % dose/g
Biodistribution: Lung (60 min): 1.10 ± 0.13 % dose/g
Biodistribution: Muscle (60 min): 0.50 ± 0.07 % dose/g
Biodistribution: Pancreas (60 min): 1.02 ± 0.18 % dose/g
Biodistribution: Skin (60 min): 0.81 ± 0.11 % dose/g
Biodistribution: Spleen (60 min): 5.11 ± 0.97 % dose/g
SMILES: C[C@H](NC(=O)CCc1ccc2c(c1)C[N+]13CC[N+]45CC(=O)[O][68Ga-3]41([O]C(=O)C3)([O]c1ccc(CCC(=O)NCCCCCC(=O)NCCCC[C@H](NC(=O)N[C@@H](CCC(=O)O)C(=O)O)C(=O)O)cc1C5)[O]2)C(=O)O (stereo partly drawn) [[^68Ga]1d]
